Measured values reported in ChEMBL document CHEMBL1772949, “Replacement of the hydrophobic part of 9-cis-retinoic acid with cyclic terpenoid moiety results in RXR-selective agonistic activity” (Bioorg Med Chem, 2011).

Columns and labels:
[1] = target: T1, Retinoic acid receptor beta (Homo sapiens) (UniProt P10826); assay: Agonist activity at human RARbeta expressed in human MG63 cells co-transfected with RARE3-SV40-Luc assessed as transcriptional efficacy at 10^-6 M after 2 days by luciferase reporter gene assay realtive to 9-cis-retinoic acid; assay type: functional, cell-based; conditions: MG-63
T1 sequence (whole entry): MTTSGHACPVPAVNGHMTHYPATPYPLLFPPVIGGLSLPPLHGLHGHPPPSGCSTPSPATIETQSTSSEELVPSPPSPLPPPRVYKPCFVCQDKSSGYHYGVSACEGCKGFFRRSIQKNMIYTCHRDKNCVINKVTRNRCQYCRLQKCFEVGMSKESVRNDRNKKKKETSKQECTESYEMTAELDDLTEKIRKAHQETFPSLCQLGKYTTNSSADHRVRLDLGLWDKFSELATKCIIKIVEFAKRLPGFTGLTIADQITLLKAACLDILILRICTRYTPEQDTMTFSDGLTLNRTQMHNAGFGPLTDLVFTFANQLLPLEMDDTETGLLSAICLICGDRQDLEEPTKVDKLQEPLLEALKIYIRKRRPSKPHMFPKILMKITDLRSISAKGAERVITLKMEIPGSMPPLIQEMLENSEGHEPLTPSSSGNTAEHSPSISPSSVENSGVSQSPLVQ

[2] = target: T2, Cellular retinoic acid-binding protein 2 (Rattus norvegicus) (UniProt P51673); assay: Agonist activity at rat CRABP2 expressed in human MG63 cells co-transfected with RXRE-SV40-Luc assessed as transcriptional efficacy at 10^-6 M after 2 days by luciferase reporter gene assay realtive to 9-cis-retinoic acid; assay type: functional, cell-based; conditions: MG-63
T2 sequence (whole entry): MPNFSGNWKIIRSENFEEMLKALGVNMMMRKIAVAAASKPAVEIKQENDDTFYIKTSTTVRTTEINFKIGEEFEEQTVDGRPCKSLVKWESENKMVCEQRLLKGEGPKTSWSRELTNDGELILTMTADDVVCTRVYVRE

Ratio [1] | Ratio [2] | SMILES
0.35 | 1.07 | C=C(C)[C@@H]1CC[C@@H](C)C=C1/C=C/C(C)=C\C=C\C(C)=C\C(=O)O
0.38 | 1.37 | CC(=C/C=C/C(C)=C/C(=O)O)/C=C/C1=C[C@@H](C)CC[C@@H]1C(C)C
0.14 | 0.37 | C/C(=C/C=C/C(C)=C/C(=O)O)C1=C[C@H](C)CC[C@H]1C(C)C
0.32 | 2.06 | CC(C)=C1CC[C@H](C)C=C1/C=C/C(C)=C\C=C\C(C)=C\C(=O)O
1.33 | 1.76 | C=C(C)[C@H]1CC[C@H](C)C=C1/C=C/C(C)=C\C=C\C(C)=C\C(=O)O
0.25 | 1.12 | CC(=C/C=C/C(C)=C/C(=O)O)/C=C/C1=C[C@H](C)CC[C@H]1C(C)C
0.5 | 1.5 | CC(C)=C1CC[C@@H](C)C=C1/C=C/C(C)=C\C=C\C(C)=C\C(=O)O
1.03 | 2.52 | CC(=C/C=C/C(C)=C/C(=O)O)/C=C/C1=C[C@]2(C(C)C)C[C@@H]2[C@H]1C

The remaining lines, values behind:

SMILES | Ratio [1] | Ratio [2]
CC(=C/C=C/C(C)=C/C(=O)O)/C=C/C1=CC2CC[C@]1(C)C2(C)C (single isomer, unassigned) | 1.99 | 0.66
C=C(C)[C@@H]1CCC2=CC(\C(C)=C/C=C/C(C)=C/C(=O)O)=CC[C@]2(C)[C@H]1C | 0.1 | 0.23
CC(=C/C=C/C(C)=C/C(=O)O)/C=C/C1=CC[C@H]2C[C@@H]1C2(C)C | 1.92 | 2.42
CC(=C/C=C/C(C)=C/C(=O)O)/C=C/C1=C[C@@H]2C[C@H]([C@H]1C)C2(C)C | 0.89 | 1.3
CC(=C/C=C/C(C)=C/C(=O)O)/C=C/C1=C[C@H]2C[C@@H]([C@@H]1C)C2(C)C | 1.48 | 0.52
C/C(=C/C=C/C(C)=C/C(=O)O)C1=C[C@H]2CC[C@]1(C)C2(C)C | 0.04 | 0.18
CC(=C/C=C/C(C)=C/C(=O)O)/C=C/C1=C[C@@H]2CC[C@@]1(C)C2(C)C | 1.36 | 2.34
C/C(=C/C=C/C(C)=C/C(=O)O)C1=CC(C)(C)[C@@]23CC[C@@H](C2)C(C)(C)C3=C1 | 0.98 | 0.71
